The text below walks through data of PubChem BioAssay (NCI).

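Exposure lasted 48 hours, with cells grown in 96-well plates and compounds tested at five concentrations. TGI: total growth inhibition.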

Among the test systems are A498 renal; RPMI-8226 leukemia; SK-MEL-2 melanoma; SNB-19 CNS; SW-620 colon; UO-31 renal; U251 CNS.
Assay in all cases: NCI anticancer screen, dose series, 48 h

Take `O=C1Cc2c(-c3cccs3)cc(-c3ccccc3)nc2-c2ccccc2N1`: the TGI with A498 renal, in the assay with RPMI-8226 leukemia, in the assay with SK-MEL-2 melanoma, in the assay on SNB-19 CNS, in the assay with SW-620 colon and in the assay with UO-31 renal was more than 100 µM in each case.

In the case of `COc1cc(CN=c2nc(N(C)C)ss2)cc(OC)c1OC`, the TGI in the assay with A498 renal is more than 10 µM; with RPMI-8226 leukemia, more than 7.37 µM; in the assay with SNB-19 CNS it was more than 10 µM; in the assay with SW-620 colon, more than 10 µM; in the assay with U251 CNS, more than 10 µM; in the assay on UO-31 renal, more than 10 µM.

With `CCCc1nnc2sc(COc3ccc(OCc4nn5c(CCC)nnc5s4)c(Cl)c3)nn12`, the TGI with A498 renal was 74.5 µM; in the assay on RPMI-8226 leukemia it was more than 100 µM; in the assay with SK-MEL-2 melanoma, more than 100 µM; in the assay on SNB-19 CNS it was more than 100 µM; in the assay on SW-620 colon, more than 100 µM; in the assay with U251 CNS it was more than 100 µM. The compound further gave a TGI in the assay on UO-31 renal of 31.8 µM.

For the compound `Brc1ccc(C2=NCSC(c3ccc(Br)cc3)=N2)cc1`, the TGI was 63.5 µM with RPMI-8226 leukemia; 32.5 µM in the assay with SK-MEL-2 melanoma; more than 100 µM in the assay on SNB-19 CNS; more than 100 µM in the assay with SW-620 colon; 53.3 µM in the assay with U251 CNS; 67.2 µM in the assay with UO-31 renal.

As to `COCCN(C(=O)c1ccccc1)C1CCC2(SCCS2)c2[nH]c3ccccc3c21` (configuration not stated), the TGI is more than 100 µM with A498 renal; 61.8 µM in the assay on RPMI-8226 leukemia; more than 100 µM in the assay with SNB-19 CNS; more than 100 µM in the assay with SW-620 colon; more than 100 µM with U251 CNS; more than 100 µM in the assay on UO-31 renal.

On to `COc1ccc2c(O)c(Oc3ccc(Cl)cc3)c(=O)oc2c1`, for which the TGI in the assay with A498 renal, with RPMI-8226 leukemia, in the assay with SNB-19 CNS, with SW-620 colon, with U251 CNS and in the assay on UO-31 renal was more than 100 µM throughout.

Take `C=CCN1C(=O)CC2[C@@H]3CCc4cc(O)ccc4C3CC[C@]2(C)C1=O` (some centres not stated): the TGI with A498 renal, in the assay with RPMI-8226 leukemia, with SK-MEL-2 melanoma, in the assay with SNB-19 CNS, in the assay on SW-620 colon and with U251 CNS was more than 10 µM each time. Also, the TGI with UO-31 renal was more than 10 µM.

For the compound `Cc1ccc(S(=O)(=O)n2cc(/C=C/C#N)c(-c3cn(S(=O)(=O)c4ccc(C)cc4)cc3-c3cn(S(=O)(=O)c4ccc(C)cc4)cc3/C=C/C#N)c2)cc1`, the TGI with A498 renal, in the assay with RPMI-8226 leukemia, in the assay with SK-MEL-2 melanoma, with SNB-19 CNS and in the assay on UO-31 renal was more than 100 µM each time.

As for `COc1cc2nc3n(c2cc1OC)C(O)c1c(Cl)nc(SC)nc1S3` (configuration not stated), the TGI is 34.9 µM with A498 renal; more than 37 µM with RPMI-8226 leukemia; more than 27.2 µM with SK-MEL-2 melanoma; more than 37.7 µM in the assay on SNB-19 CNS; 22.8 µM with SW-620 colon; 26.3 µM in the assay with U251 CNS. Also, the TGI in the assay on UO-31 renal came out at 13.2 µM.

With `O=C1C2C3C4C1C1C2[C@H](OCc2ccccc2)C3C1[C@H]4OCc1ccccc1` (some centres not stated), the TGI in the assay on A498 renal, in the assay on RPMI-8226 leukemia, in the assay on SK-MEL-2 melanoma, in the assay with SNB-19 CNS, in the assay with SW-620 colon and in the assay with U251 CNS was more than 100 µM each time. In addition, the TGI with UO-31 renal is more than 100 µM.

Turning to `O=C(CC(NC(=O)OCc1ccccc1)C(=O)NC1Cc2ccccc2C1=O)OCc1ccccc1` (configuration not stated), the TGI in the assay on RPMI-8226 leukemia, in the assay with SK-MEL-2 melanoma, in the assay with SNB-19 CNS, in the assay on SW-620 colon, in the assay on U251 CNS and in the assay on UO-31 renal was more than 100 µM in each case.

With `Clc1ccc(/C=C/c2nc(-c3ccccc3)cn3c2nc2ccccc23)cc1Cl`, the TGI in the assay on A498 renal, with RPMI-8226 leukemia, in the assay with SK-MEL-2 melanoma, in the assay on SNB-19 CNS, with SW-620 colon and in the assay on U251 CNS was more than 100 µM throughout. Besides, in the assay on UO-31 renal, the TGI was more than 100 µM.

As for `OCC(O)COCn1cc(Cn2ncc3c(SCc4ccccc4)ncnc32)nn1` (configuration not stated), the TGI in the assay on A498 renal, with RPMI-8226 leukemia, in the assay with SK-MEL-2 melanoma, in the assay with SNB-19 CNS, in the assay on SW-620 colon and in the assay on U251 CNS was more than 100 µM each time. For the same compound, in the assay with UO-31 renal, the TGI was more than 100 µM.

Take `O=C(O)c1ccccc1CN1CCCC(C(=O)O)C1` (configuration not stated): the TGI with A498 renal, in the assay on RPMI-8226 leukemia, in the assay on SK-MEL-2 melanoma, with SNB-19 CNS, in the assay on SW-620 colon and with U251 CNS was more than 100 µM each time. This compound also gave a TGI with UO-31 renal of more than 100 µM.

In the case of `Cc1cn2cc(-c3cccs3)nc2s1`, the TGI in the assay with A498 renal, with RPMI-8226 leukemia, in the assay on SK-MEL-2 melanoma, in the assay on SNB-19 CNS, with SW-620 colon and with U251 CNS was more than 100 µM each time. The same compound registered a TGI with UO-31 renal of more than 100 µM.

`NC(N)=N/N=C/c1c(-c2ccccc2[N+](=O)[O-])nc2sccn12`: the TGI turned out to be 37.7 µM in the assay with A498 renal; 42.8 µM in the assay with RPMI-8226 leukemia; 30.4 µM in the assay with SK-MEL-2 melanoma; 77.4 µM with SNB-19 CNS; 38 µM in the assay with SW-620 colon; 31.2 µM with U251 CNS. The TGI in the assay with UO-31 renal was 90.3 µM.

As to `COc1cc2c(cc1OS(C)(=O)=O)N=C[C@@H]1CCCN1C2=O`, the TGI in the assay with A498 renal, in the assay with RPMI-8226 leukemia, in the assay with SK-MEL-2 melanoma, in the assay on SNB-19 CNS, with SW-620 colon and with U251 CNS was more than 100 µM throughout. In addition, the TGI in the assay with UO-31 renal was more than 100 µM.

As to `CN1CCN(Cn2nc(COc3ccccc3Cl)n(/N=C/c3ccc(-c4ccc(Cl)cc4Cl)o3)c2=S)CC1`, the TGI in the assay on A498 renal is 54.1 µM; with RPMI-8226 leukemia, 83.8 µM; in the assay with SK-MEL-2 melanoma, 45.4 µM; in the assay on SW-620 colon, 34.6 µM; in the assay on U251 CNS, 34.6 µM; in the assay with UO-31 renal, more than 100 µM.
